Source: ChEMBL document CHEMBL4507276 (2021)

Experiments:
[1] = target: Activin receptor type-1-like (Homo sapiens) (UniProt P37023); settings: Compound concentration 1000.0 nM
[2] = target: T1, Tyrosine-protein kinase JAK3 (Homo sapiens) (UniProt P52333); settings: Compound concentration 1000.0 nM
T1 sequence (whole entry): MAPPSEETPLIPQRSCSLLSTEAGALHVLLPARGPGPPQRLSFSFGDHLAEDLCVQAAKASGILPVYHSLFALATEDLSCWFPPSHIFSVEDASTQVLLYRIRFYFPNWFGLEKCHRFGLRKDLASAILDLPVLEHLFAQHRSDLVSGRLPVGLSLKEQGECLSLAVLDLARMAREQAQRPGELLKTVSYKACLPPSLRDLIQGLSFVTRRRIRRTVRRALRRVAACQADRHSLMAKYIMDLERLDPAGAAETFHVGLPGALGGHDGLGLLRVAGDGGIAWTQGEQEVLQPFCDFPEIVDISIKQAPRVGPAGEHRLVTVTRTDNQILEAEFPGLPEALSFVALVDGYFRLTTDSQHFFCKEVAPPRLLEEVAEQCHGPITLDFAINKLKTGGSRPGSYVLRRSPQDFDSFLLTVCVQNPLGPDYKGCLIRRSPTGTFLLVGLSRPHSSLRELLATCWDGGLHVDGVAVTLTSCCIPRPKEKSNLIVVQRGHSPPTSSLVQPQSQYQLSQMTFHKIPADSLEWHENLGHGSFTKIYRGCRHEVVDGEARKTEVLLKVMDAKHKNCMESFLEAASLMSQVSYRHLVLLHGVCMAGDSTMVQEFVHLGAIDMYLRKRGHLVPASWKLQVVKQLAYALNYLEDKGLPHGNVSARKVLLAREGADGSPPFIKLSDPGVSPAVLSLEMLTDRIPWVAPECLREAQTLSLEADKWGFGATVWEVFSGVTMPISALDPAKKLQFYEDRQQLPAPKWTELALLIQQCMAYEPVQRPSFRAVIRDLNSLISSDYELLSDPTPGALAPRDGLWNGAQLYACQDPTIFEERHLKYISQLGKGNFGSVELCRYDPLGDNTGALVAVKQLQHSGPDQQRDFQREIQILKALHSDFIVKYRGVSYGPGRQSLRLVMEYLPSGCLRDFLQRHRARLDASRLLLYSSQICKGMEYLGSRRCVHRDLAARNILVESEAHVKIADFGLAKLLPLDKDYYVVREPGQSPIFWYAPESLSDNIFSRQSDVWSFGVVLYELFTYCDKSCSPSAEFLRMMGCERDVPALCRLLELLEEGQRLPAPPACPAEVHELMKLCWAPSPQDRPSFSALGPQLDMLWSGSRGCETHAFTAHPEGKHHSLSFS

[3] = target: T2, Tyrosine-protein kinase Mer (Homo sapiens) (UniProt Q12866); settings: Compound concentration 1000.0 nM
T2 sequence (whole entry): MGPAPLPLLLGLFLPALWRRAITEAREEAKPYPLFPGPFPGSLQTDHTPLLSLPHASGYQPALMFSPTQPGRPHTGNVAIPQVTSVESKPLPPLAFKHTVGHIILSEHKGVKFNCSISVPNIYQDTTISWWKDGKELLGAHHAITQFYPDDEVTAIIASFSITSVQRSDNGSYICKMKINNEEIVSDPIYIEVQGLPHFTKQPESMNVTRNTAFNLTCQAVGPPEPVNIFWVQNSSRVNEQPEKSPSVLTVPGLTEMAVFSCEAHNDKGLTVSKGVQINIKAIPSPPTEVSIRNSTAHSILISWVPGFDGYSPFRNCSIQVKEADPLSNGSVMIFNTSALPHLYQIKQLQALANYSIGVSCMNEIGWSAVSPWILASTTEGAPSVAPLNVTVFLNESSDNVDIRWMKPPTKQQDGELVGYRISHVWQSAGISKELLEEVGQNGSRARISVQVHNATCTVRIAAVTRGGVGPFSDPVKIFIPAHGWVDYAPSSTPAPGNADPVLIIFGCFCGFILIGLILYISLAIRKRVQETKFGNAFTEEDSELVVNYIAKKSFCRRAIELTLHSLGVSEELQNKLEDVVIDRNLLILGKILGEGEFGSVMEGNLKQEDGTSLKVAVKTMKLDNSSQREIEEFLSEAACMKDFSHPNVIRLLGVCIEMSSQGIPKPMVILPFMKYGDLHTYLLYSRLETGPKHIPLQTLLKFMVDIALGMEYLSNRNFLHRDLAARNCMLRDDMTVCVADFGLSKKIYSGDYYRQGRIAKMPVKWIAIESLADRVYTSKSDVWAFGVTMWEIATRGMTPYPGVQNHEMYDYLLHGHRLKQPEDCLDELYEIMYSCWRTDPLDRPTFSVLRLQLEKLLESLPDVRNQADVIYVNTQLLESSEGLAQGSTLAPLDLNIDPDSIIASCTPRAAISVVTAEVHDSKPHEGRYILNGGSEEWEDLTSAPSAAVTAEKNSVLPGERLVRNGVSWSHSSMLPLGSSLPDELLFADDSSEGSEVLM

[4] = target: Phosphatidylinositol 4-kinase beta (Homo sapiens) (UniProt Q9UBF8); settings: Compound concentration 1000.0 nM
[5] = target: Serine/threonine-protein kinase 25 (Homo sapiens) (UniProt O00506); settings: Compound concentration 1000.0 nM
[6] = system: Leucine-rich repeat serine/threonine-protein kinase 2 (Homo sapiens), Q5S007 [G2019S]; settings: Compound concentration 1000.0 nM
[7] = target: Calcium/calmodulin-dependent protein kinase type 1D (Homo sapiens) (UniProt Q8IU85); settings: Compound concentration 1000.0 nM
[8] = target: Myosin light chain kinase, smooth muscle (Homo sapiens) (UniProt Q15746); settings: Compound concentration 1000.0 nM
[9] = target: Cyclin-dependent kinase 17 (Homo sapiens) (UniProt Q00537); settings: Compound concentration 1000.0 nM
[10] = target: Casein kinase I isoform alpha (Homo sapiens) (UniProt P48729); settings: Compound concentration 1000.0 nM
[11] = target: Proto-oncogene tyrosine-protein kinase ROS (Homo sapiens) (UniProt P08922); settings: Compound concentration 1000.0 nM
[12] = target: Vascular endothelial growth factor receptor 1 (Homo sapiens) (UniProt P17948); assay: FLT-1(VEGFR1)_CE Cerep selectivity data (BI); settings: Compound concentration 20.0 uM
[13] = target: 5-hydroxytryptamine receptor 4 (Homo sapiens) (UniProt Q13639); assay: 5HT4EH_ANTAG Cerep selectivity data (BI); settings: filed as antagonist, Compound concentration 20.0 uM
[14] = target: Tumor necrosis factor (Homo sapiens) (UniProt P01375); assay: TNFALPHA/H Cerep selectivity data (BI); settings: Compound concentration 20.0 uM
[15] = target: Delta-type opioid receptor (Homo sapiens) (UniProt P41143); assay: DELTA/HU Eurofins-Panlabs selectivity data (BI); settings: Compound concentration 10.0 uM
[16] = target: Serine/threonine-protein kinase 25 (Homo sapiens) (UniProt O00506); assay: STK25 Invitrogen selectivity data (BI); settings: Compound concentration 3.0 uM

Sequence of Serine/threonine-protein kinase 25 (Homo sapiens) (O00506 whole entry, looked up): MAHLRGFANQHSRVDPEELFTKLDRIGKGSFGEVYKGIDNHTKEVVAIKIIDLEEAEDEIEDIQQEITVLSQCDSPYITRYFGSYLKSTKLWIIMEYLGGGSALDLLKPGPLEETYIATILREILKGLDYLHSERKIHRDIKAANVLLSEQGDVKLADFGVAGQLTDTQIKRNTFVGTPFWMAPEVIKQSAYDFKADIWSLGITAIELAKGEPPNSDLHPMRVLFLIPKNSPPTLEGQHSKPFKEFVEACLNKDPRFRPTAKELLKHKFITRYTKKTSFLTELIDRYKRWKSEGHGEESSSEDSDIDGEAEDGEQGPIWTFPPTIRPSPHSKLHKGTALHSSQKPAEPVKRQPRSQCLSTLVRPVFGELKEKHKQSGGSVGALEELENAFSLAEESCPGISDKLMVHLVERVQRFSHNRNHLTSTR
Sequence of Cyclin-dependent kinase 17 (Homo sapiens) (Q00537 whole entry, looked up, canonical isoform): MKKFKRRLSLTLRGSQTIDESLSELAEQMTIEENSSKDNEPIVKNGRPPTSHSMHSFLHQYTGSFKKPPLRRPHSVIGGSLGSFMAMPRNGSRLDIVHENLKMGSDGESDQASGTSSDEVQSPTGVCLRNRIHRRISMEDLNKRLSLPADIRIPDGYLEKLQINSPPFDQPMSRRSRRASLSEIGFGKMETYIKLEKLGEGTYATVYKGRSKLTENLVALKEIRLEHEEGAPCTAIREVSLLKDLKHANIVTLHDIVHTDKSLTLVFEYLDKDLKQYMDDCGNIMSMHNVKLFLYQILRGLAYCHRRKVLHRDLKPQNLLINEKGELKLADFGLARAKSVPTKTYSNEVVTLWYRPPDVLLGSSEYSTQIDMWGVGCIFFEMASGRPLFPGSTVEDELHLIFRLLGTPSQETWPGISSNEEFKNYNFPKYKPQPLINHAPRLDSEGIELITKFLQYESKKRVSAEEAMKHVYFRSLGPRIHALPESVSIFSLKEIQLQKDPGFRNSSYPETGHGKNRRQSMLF
Sequence of Activin receptor type-1-like (Homo sapiens) (P37023 whole entry): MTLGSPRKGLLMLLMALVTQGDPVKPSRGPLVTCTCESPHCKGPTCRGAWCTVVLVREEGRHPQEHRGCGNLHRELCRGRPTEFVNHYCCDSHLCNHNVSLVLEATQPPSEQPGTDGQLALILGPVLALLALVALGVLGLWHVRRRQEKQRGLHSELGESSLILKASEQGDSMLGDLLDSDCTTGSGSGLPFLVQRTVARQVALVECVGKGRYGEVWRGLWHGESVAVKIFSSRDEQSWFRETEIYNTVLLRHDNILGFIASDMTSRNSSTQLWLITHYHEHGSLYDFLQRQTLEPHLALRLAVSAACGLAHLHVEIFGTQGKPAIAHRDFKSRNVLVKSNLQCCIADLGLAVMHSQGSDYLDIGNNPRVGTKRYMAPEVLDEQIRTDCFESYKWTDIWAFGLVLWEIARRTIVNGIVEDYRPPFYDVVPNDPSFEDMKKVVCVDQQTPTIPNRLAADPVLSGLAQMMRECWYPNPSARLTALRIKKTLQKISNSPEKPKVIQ
Sequence of Casein kinase I isoform alpha (Homo sapiens) (P48729 2-337 limits assumed): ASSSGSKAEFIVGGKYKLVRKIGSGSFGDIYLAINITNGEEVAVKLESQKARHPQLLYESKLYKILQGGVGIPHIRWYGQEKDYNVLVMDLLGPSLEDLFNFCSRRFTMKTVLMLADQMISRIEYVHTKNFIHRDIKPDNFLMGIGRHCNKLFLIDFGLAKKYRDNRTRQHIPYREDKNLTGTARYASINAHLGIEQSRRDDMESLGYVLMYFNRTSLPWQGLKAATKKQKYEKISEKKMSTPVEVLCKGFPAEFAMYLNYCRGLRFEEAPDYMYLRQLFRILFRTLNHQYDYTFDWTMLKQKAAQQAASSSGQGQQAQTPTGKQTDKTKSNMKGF
Sequence of Proto-oncogene tyrosine-protein kinase ROS (Homo sapiens) (P08922 whole entry): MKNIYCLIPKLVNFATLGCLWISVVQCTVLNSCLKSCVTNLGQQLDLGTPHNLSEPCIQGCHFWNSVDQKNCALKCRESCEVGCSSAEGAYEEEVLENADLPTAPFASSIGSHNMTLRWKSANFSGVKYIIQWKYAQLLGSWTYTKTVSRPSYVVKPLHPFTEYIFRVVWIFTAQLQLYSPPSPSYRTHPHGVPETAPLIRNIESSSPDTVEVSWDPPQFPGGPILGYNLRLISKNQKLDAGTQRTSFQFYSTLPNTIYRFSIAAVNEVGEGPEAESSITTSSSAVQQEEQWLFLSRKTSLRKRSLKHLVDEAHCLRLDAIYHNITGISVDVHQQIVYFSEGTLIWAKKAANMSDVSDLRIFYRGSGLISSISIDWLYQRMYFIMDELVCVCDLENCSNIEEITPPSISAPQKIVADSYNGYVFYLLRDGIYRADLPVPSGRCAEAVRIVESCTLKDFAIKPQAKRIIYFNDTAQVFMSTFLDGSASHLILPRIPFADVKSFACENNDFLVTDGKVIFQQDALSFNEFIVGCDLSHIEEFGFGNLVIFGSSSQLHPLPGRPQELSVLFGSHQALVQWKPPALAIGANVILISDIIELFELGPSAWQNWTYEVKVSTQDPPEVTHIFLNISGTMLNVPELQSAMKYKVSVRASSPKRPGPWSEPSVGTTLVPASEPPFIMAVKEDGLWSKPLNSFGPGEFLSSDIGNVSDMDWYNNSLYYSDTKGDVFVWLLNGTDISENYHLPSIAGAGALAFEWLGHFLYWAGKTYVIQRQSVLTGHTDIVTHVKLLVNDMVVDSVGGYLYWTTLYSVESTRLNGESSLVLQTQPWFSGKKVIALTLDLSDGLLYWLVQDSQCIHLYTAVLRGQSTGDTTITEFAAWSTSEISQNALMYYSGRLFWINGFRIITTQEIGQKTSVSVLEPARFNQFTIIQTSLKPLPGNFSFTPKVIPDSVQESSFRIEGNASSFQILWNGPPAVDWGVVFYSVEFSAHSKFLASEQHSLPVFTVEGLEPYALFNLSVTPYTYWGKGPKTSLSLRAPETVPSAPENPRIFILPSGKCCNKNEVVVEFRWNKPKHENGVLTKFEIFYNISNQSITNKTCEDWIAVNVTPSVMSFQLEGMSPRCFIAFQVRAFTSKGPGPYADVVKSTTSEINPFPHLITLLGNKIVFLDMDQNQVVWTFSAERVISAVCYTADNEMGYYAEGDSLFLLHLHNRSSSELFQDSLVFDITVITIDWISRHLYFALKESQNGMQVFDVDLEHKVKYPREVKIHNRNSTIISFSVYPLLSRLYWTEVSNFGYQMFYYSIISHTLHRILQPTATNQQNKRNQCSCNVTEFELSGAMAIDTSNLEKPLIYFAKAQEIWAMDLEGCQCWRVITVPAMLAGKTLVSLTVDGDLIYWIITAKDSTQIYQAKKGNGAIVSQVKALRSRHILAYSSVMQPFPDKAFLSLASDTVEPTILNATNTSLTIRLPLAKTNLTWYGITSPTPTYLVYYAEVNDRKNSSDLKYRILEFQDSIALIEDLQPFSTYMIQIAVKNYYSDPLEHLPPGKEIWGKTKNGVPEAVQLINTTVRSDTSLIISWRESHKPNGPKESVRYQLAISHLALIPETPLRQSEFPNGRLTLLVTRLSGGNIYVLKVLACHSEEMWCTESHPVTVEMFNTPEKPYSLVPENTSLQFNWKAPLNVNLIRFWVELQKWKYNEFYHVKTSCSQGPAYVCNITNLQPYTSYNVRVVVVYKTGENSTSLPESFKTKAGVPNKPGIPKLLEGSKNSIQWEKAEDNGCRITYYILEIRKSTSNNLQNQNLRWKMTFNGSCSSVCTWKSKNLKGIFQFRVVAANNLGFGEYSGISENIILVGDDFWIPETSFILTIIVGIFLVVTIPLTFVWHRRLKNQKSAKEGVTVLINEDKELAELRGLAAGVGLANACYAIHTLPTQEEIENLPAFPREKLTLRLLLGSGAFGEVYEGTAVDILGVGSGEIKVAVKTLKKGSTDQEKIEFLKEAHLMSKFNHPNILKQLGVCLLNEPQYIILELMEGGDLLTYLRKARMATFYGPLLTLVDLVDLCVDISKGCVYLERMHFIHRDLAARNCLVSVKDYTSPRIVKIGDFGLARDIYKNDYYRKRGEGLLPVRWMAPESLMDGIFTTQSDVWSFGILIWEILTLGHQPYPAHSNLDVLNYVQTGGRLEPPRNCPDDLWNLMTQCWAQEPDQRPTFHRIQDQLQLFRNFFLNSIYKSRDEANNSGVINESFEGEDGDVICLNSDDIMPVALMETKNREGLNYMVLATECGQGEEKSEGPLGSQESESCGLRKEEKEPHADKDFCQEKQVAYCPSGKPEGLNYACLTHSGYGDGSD
Sequence of Calcium/calmodulin-dependent protein kinase type 1D (Homo sapiens) (Q8IU85 whole entry, looked up): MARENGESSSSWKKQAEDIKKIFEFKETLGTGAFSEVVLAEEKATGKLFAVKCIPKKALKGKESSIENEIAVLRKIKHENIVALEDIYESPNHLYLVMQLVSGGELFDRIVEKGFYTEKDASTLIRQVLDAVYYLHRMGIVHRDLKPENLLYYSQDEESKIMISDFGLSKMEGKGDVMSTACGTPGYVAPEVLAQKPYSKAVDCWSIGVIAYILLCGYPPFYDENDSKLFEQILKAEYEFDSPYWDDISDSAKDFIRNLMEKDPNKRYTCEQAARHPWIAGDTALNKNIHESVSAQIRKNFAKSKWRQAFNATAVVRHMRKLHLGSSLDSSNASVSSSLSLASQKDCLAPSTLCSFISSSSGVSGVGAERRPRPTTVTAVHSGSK
Sequence of 5-hydroxytryptamine receptor 4 (Homo sapiens) (Q13639 whole entry): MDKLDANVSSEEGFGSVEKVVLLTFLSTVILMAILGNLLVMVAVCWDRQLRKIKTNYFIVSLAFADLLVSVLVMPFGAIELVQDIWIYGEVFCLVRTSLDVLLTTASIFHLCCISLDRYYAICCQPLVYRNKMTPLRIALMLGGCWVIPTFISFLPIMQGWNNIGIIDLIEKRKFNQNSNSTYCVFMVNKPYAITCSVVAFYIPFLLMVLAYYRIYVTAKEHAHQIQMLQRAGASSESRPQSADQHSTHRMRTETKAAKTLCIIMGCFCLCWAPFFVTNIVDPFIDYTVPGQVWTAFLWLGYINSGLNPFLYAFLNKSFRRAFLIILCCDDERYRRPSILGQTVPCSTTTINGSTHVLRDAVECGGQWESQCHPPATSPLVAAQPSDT

Structure (SMILES) | residual activity [1] [%] | residual activity [2] [%] | residual activity [3] [%] | residual activity [4] [%] | residual activity [5] [%] | residual activity [6] [%] | residual activity [7] [%] | residual activity [8] [%] | residual activity [9] [%] | residual activity [10] [%] | residual activity [11] [%] | residual activity [12] [%] | residual activity [13] [%] | residual activity [14] [%] | residual activity [15] [%] | residual activity [16] [%]
CN(C)C(=O)Cn1cc(-c2nc(C3(c4ccc(-c5cnc(N)nc5)cc4)CC3)no2)cn1 [BI 0153] | 86 | 80 | 88 | 70 | 100 | 100 | 100 | 72 | 100 | 62 | 87 | – | – | – | – | –
CN(C)C(=O)Cn1cc(-c2nc([C@@](C)(c3ccc(-c4cnc(N)nc4)cc3)C3CC3)no2)cn1 [BI 665915] | 84 | 95 | 100 | – | 100 | 100 | 100 | 84 | 96 | 100 | 88 | 36 | 111 | 87 | 96 | 106
